Test results as given in ChEMBL document CHEMBL1155943, “Design of a sialylglycopolymer with a chitosan backbone having efficient inhibitory activity against influenza virus infection” (J Med Chem, 2008).
≈ marks a conversion by molar mass, not a printed value.

Experiments:
[1] = test system: Influenza A virus (A/Puerto Rico/8/1934(H1N1)); test: Antiviral activity against human influenza virus (A/New Caledonia/20/1999 (H1N1)) infected in MDCK cells; type: functional, organism-based, Influenza A virus (A/New Caledonia/20/1999(H1N1))
Influenza A virus H3N2 [2] = test: Antiviral activity against Influenza virus (A/Panama/2007/99 (H3N2)) infected in MDCK cells; type: functional, organism-based, Influenza A virus (A/Panama/2007/1999(H3N2))
Influenza B virus [3] = test: Antiviral activity against Influenza virus (B/Shanghai/361/2002) infected in MDCK cells; type: functional, organism-based; details: B/Shanghai/361/2002, MDCK
[4] = test system: Influenza A virus (A/Puerto Rico/8/1934(H1N1)); test: Antiviral activity against human influenza virus (A/New Caledonia/20/1999 (H1N1)) infected in MDCK cells assessed as sialic acid concentration; type: functional, organism-based, Influenza A virus (A/New Caledonia/20/1999(H1N1))
Influenza A virus H3N2 [5] = test: Antiviral activity against Influenza virus (A/Panama/2007/99 (H3N2)) infected in MDCK cells assessed as sialic acid concentration; type: functional, organism-based, Influenza A virus (A/Panama/2007/1999(H3N2))
Influenza B virus [6] = test: Antiviral activity against Influenza virus (B/Shanghai/361/2002) infected in MDCK cells assessed as sialic acid concentration; type: functional, organism-based; details: B/Shanghai/361/2002, MDCK

CC(=O)N[C@H]1[C@H]([C@H](O)[C@H](O)CO)O[C@](OC[C@H]2O[C@@H](O[C@@H]([C@H](O)[C@H](C=O)NC(C)=O)[C@H](O)CO)[C@H](O)[C@@H](O)[C@H]2O)(C(=O)O)C[C@@H]1O
IC50 [1]: 2000 µg/mL (≈ 2.96 mM)
IC50 (Influenza A virus H3N2 [2]): 3000 µg/mL (≈ 4.45 mM)
IC50 (Influenza B virus [3]): 10000 µg/mL (≈ 14.8 mM)
IC50 [4]: 3 mM
IC50 (Influenza A virus H3N2 [5]): 4 mM
IC50 (Influenza B virus [6]): 14.8 mM
